Here are results for six compounds from patent US8691183B2, “Means for the detection and treatment of prostate cells” (Eberhard-Karls-Universitaet Tuebingen Universitaetsklinikum, priority 2008, dated 2014).

Entries after “also recorded” stand apart in the source; their conditions may differ.

Assay [1] deals with LNCaP prostate carcinoma cells. Briefly: In-vitro MRT / MR relaxometry of cells in Eppendorf tubes. The assay is classed as cell-based, human. As to conditions: for uptake / signal intensity of the cells in T1-weighted MRT images: 20 minutes incubation, washed, 130 μM. The procedure:
(§1) For the MR relaxometry, all tumor cell lines were grown in 75 cm^2 culture flasks (Corning Costar, Bodenheim, Germany) (70% confluency). Accutase™ (PAA Laboratories, Pasching, Austria) was added to achieve detachment of the cells, which were harvested and subsequently aliquoted into Eppendorf tubes (6×10^6 cells per tube). The cells in the tubes were incubated with the DOTA-containing compounds (130 μM). After a 20 minutes incubation period at 37° C. in an atmosphere of 5% CO2, the cells were washed three times in PBS and centrifuged at 800 rpm for 5 minutes.
(§2) The in-vitro MRT was performed with a 3 Tesla-whole body MRT system (Magnetom TRIO, circular polarized wrist coil, Siemens, Erlangen, Germany)
(§3) Sagittal T1-weighted MR images were obtained using the following spin-echo sequence:
(§4) Repetition time (TR): 200 ms, echo time (TE): 7,4 ms, flip angle: 90°, averages: 1, concatenations: 2, measurements: 1, number of slices: 19, distance factor: 30%, slice thickness: 3 mm, field of view read: 180 mm/100%, resolution: 256/100%, voxel size: 0.7×0.7×3.0 mm, scan time: 1:48 min.
(§5) The T1 relaxation times were evaluated from signal intensities obtained by multiple spin-echo measurements:
(§6) Repetition time (TR): 20-8000 ms (50 different TR values), echo time (TE): 6.4 ms, flip angle: 90°, averages: 1, measurements: 1, number of slices: 1, slice thickness: 1 mm, field of view read: 120 mm/87.5%, resolution: 128/100%, voxel size: 0.9×0.9×1 mm.
(§7) The analysis and calculations were performed using a Matlab program (Math Works, Natick, Mass., USA). The T1 values were approximated by a three-parameter fit procedure. All signal curves were examined and found to be monoexponential. The investigations were performed in triplicate.

In assay [2] the test system is other tumor cell lines (non-prostate). The description is as above. As to conditions: other carcinoma cells; incubation, washed three times with PBS. The format is cell-based, human. The procedure:
as §1, §2, §3, §4, §5, §6, §7

Assay [3] relates to LNCaP prostate carcinoma cells. Briefly: Confocal laser scanning microscopy (CLSM) of cellular uptake. As to conditions: 20 minutes incubation, 10 μg/ml. The format is cell-based, human. The method, then: (§8) The cells were grown to 80% confluency at 37° C., 5% CO2 (vol/vol) in 4-well plates (NUNC, Wiesbaden, Germany) with about 300,000 cells per well.
(§9) U373 human glioma cells, human prostate carcinoma cells PC3 and LNCaP, human Jurkat lymphoma cells, and human colon carcinoma cells Colo205 were grown in RPMI1640 ready mix medium containing L-glutamine and 10% fetal bovine serum (FBS)-gold (PAA Laboratories, Pasching, Austria). U2OS human osteosarcoma cells and HeLa human cervix carcinoma cells were grown in high glucose Dulbeccos modified Eagle's medium containing GlutaMax™ and pyrovate and 10% FBS-gold. Healthy human prostate cells (CC2555, Lonza, Verviers, Belgium) were cultivated in prostate endothelial cell growth medium (PrEGM, Lonza, Verviers, Belgium).
(§10) The compounds 1, 2 and 4 were dissolved at 1 mg/ml in pure ethanol (Riedel de Haen, Sigma-Aldrich, Taufkirchen, Germany) and then diluted in the appropriate medium for the cells to 10 μg/ml of conjugate and 1% ethanol. The cells were incubated at 37° C. in an atmosphere of 5% CO2 for 20 minutes with the compounds. After this, the cells were rinsed three times with medium and then incubated with medium again. This experiment was also performed with free sulforhodamine B with a corresponding amount.
(§11) The confocal laser scanning microscopy was performed on an inverted LSM510 laser scanning microscope (Carl Zeiss) (objective: LD Achroplan 40×0.6, Plan Neofluar 20×0.50, 40×0.75). For the rhodamine fluorescence excitation the 543 nm beam of a helium-neon laser with suitable beam splitters and barrier filters were used. All measures were performed at least three times on living, non-fixed cells.

In assay [4] the test system is colon carcinoma cells (Colo205). Described as above. The format is cell-based, human. Particulars: 20 minutes incubation, 10 μg/ml. The method, then:
as §8, §9, §10, §11

For assay [5], the system named is PC-3 prostate carcinoma cells. Briefly: Fluorescence activated cell sorting (FACS) of cellular uptake. The format is cell-based, human. As to conditions: 20 minutes incubation. The procedure: (§12) For the fluorescence activated cell sorting (FACS), cells were grown in 75 cm^2 culture flasks (Corning Costar, Bodenheim, Germany) (80% confluency) under the same conditions as described for the confocal laser scanning microscopy. Accutase™ (PAA Laboratories, Pasching, Austria) was added to achieve detachment of the cells, which were harvested and subsequently alequoted into Eppendorf tubes (Eppendorf, Hamburg, Germany) (1×10^6 cells per tube). The cells were incubated for 20 minutes with the compounds 1, 2 and 4 (10 μg/ml in the appropriate medium with 1% ethanol) and the compound 10 (130 μM in the appropriate medium).
(§13) Afterwards, the cells were washed three times in PBS and centrifuged at 800 rpm for 5 minutes. Then 300 μl FACS buffer (D-PBS containing 1% parafomaldehyde) were added. The samples were measured immediately. Approximately 20,000 events were recorded per sample. The fluorescence excitation was achieved by an argon laser (488 nm). The fluorescence was detected using a 580-610 and a 560-680 nm band-pass filter. All investigations were performed in triplicate.
(§14) Mean rhodamine and fluorescein isothiocyanate fluorescence values of the samples were acquired using the WinMDI software (Joseph Trotter, Scripps Research Institute, San Diego, Calif., USA) and then statistically evaluated.

Assay [6] has as its system non-prostate tumor cell lines. The assay is described as above. As to conditions: 20 minutes incubation. The assay is classed as cell-based, human. The procedure: as §12, §13, §14
In assay [7] the test system is PC-3 prostate carcinoma cells. Briefly: Confocal laser scanning microscopy (CLSM) of cellular uptake. The format is cell-based, human. Particulars: 20 minutes incubation, 260 μM. The procedure:
as §8, §9, §10
The compound 10 was dissolved in culture medium (260 μM). Lys(FITC)-aminobourgeonal (compound 7) was dissolved in culture medium with 1% ethanol (260 μM). The cells were incubated for 20 minutes (compound 10) and for 2 days (compounds 7 and 10). This assay was also performed with free FITC. After the incubation the cells were rinsed three times with medium and again incubated in medium. Propidium iodide (PI) (molecular probes, Eugene, Oreg., USA) was added to stain death cells.
(§15) The confocal laser scanning microscopy was performed on an inverted LSM510 laser scanning microscope (Carl Zeiss) (objective: LD Achroplan 40×0.6, Plan Neofluar 20×0.50, 40×0.75). For the rhodamine fluorescence excitation the 543 nm beam of a helium-neon laser with suitable beam splitters and barrier filters were used. […]

Assay [8] relates to osteosarcoma cells (U2OS). Described as above. The assay is classed as cell-based, human. Particulars: 20 minutes incubation, 260 μM. The method, then:
as §8, §9
The compound 10 was dissolved in culture medium (260 μM). Lys(FITC)-aminobourgeonal (compound 7) was dissolved in culture medium with 1% ethanol (260 μM). The cells were incubated for 20 minutes (compound 10) and for 2 days (compounds 7 and 10). This assay was also performed with free FITC. […]
as §15

The subject of assay [9] is LNCaP prostate carcinoma cells. Briefly: Fluorescence activated cell sorting (FACS) of cellular uptake. Particulars: 20 minutes incubation, 130 μM. The format is cell-based, human. The procedure:
as §12, §13, §14

For assay [10], the system named is healthy prostate cells (CC2555). The assay is described as above. The assay is classed as cell-based, human. Particulars: 20 minutes incubation, 130 μM. The procedure: as §12, §13, §14
For assay [11], the system named is PC-3 prostate carcinoma cells. Briefly: In-vitro MRT / MR relaxometry of cells in Eppendorf tubes. Particulars: rank among cell lines. The format is cell-based, human. The procedure:
as §1, §2, §3, §4, §5, §6, §7

Assay [12] has as its system healthy prostate cells (CC2555). The assay is described as above. The assay is classed as cell-based, human. Particulars: rank among cell lines. The procedure:
as §1, §2, §3, §4, §5, §6, §7

For assay [13], the system named is human PC3 prostate carcinoma in the right thigh of a nude mouse. Briefly: Magnetic resonance tomography of nude mouse with implanted tumor. The format is in vivo. Particulars: 90 minutes after intravenous administration. The procedure:
PC3 and LNCaP prostate tumor cells were grown to 80% confluency, detached with Accutase™ (PAA Laboratories, Pasching, Austria) and then harvested. The cells were washed with PBS three times and then drawn up into a 30 g Micro-Fine™ insulin syringe (Becton Dickinson, Franklin Lakes, N.J., USA). Approximately 5×10^5 cells per mouse were injected into the right thigh of a male CD1 Nu/Nu mouse (Charles River, WIGA, Sulzfeld, Germany). The tumor growth was monitored and after 10 to 14 days mice bearing tumors with 2-3 mm in diameter were treated with the conjugate. 1.5 mg of the compound 1 were dissolved in 300 μl PBS containing 20% ethanol and applied intraperitoneally. […] Frozen sections (5 μm thickness) were prepared (LD3000 Cryotom, Leica Biosystems GmbH, Nussloch, Germany) and the rhodamine staining was analyzed by confocal laser scanning
The magnetic resonance tomography (MRT) measurements were performed using a clinical 3-Tesla Siemens whole body MRT (Magnetom TRIO; Siemens, Erlangen, Germany) with the mice in prone position in a standard circular polarized wrist coil. The MRT protocol consisted of native and post-contrast T1 weighted axial images: slice thickness 2 mm, field of view read: 60 mm/7.5%, Voxel size: 0.2×0.2×2 mm, repetition time (TR): 800 ms, echo time (TE): 9.1 ms, flip angle: 90°, acquisitions: tions: 2, number of slices: 25, distance factor: 0, scan time 06:02 min. […]

The subject of assay [14] is seven human tumor cell lines and healthy human epithelial prostate cells (CC2555). Briefly: Confocal laser scanning microscopy (CLSM) of cellular uptake, all cell types. As to conditions: corresponding amount of free dye, 20 minutes. The format is cell-based. The method, then:
as §8, §9
The compounds 1, 2 and 4 were dissolved at 1 mg/ml in pure ethanol (Riedel de Haen, Sigma-Aldrich, Taufkirchen, Germany) and then diluted in the appropriate medium for the cells to 10 μg/ml of conjugate and 1% ethanol. The cells were incubated at 37° C. in an atmosphere of 5% CO2 for 20 minutes with the compounds. […]
as §15

`O=C([O-])CN1CCN(CC(=O)[O-])CCN(CC(=O)O)CCN(CC(=O)[O-])CC1.[Gd+3]` [Gd-DOTA, reference compound]: the “uptake / signal intensity of the cells in T1-weighted MRT images” value in [1] (LNCaP) is recorded as “not taken up by the prostate carcinoma cells; also recorded: remain dark”. In addition, the “signal intensity of the cells in T1-weighted MRT images” value in [2] is “remain dark”.

With `CCN(CC)c1ccc2c(-c3ccc(S(=O)(=O)NCCC(=O)Nc4ccc(/C=C\C=O)cc4)cc3S(=O)(=O)[O-])c3ccc(=[N+](CC)CC)cc-3oc2c1` [compound 2, Sulforhodamine-Sulfonamido βAla-Aminocinnamaldehyde], the “uptake into the cells (rhodamine staining, CLSM)” value in assay [3] is “significantly stained”; in [4], “basically unstained”.

Take `CCN(CC)c1ccc2c(-c3ccc(S(=O)(=O)NCCC(=O)NCCCCCCCC=O)cc3S(=O)(=O)O)c3ccc(=[N+](CC)CC)cc-3oc2c1` [compound 4, sulforhodamine-sulfonamido βala-aminooctanal]: the “fluorescence (rhodamine, FACS)” value is given as “highest fluorescence” in assay [5] (PC3, 10 μg/ml) and “only show little staining” in [6] (remaining carcinoma cell lines, 10 μg/ml).

For `O=CCCCCCCCCCCNC(=O)C(CCCCN=S=C=Nc1ccc2c(c1)C(=O)OC21c2ccc(O)cc2Oc2cc(O)ccc21)NC(=O)C[N+]12CC[N+]3(CC(=O)O)CCN(CC(=O)O)CC[N+](CC(=O)O)(CC1)[Gd]32` (centres unmarked) [compound 10, Gd-DOTA-Lys(FITC) aminoundecylic aldehyde], the “uptake into the cells (FITC staining, CLSM)” value in [7] is “very well uptaken into the cytoplasm”; in assay [8] it was “not into the osteosarcoma cells”. Besides, the “staining (FITC fluorescence, FACS)” value in assay [9] was “stained”; in assay [5] (PC-3, 130 μM), “stained”; in [10] it was “stained”; in assay [6] (non-prostate tumor cell lines, 130 μM) it was “not the non-prostate tumor cell lines”. Besides, the “uptake / signal intensity of the cells in T1-weighted MRT images” value in [1] (LNCaP) was “uptaken into the cytoplasm of the prostate carcinoma cells; also recorded: increase of the signal intensity”. In addition, the “difference of the T1-time (before minus after the incubation)” value in [1] (LNCaP, rank among cell lines) is “strongest reduction of the T1-time”; in [11] it was “strongest reduction of the T1-time”; in assay [12], “strongest reduction of the T1-time”. The “T1-time reduction in comparison to simple Gd-DOTA” value in [1] (prostate carcinoma cells (LNCaP)) is listed as “significantly stronger T1-time reduction”. Also, the “signal intensity of the cells in T1-weighted MRT images” value in assay [2] is listed as “only with the LNCaP-prostate carcinoma cells”. In addition, the “MRT staining of non-prostate carcinoma cells” value in assay [13] is “remain unstained”. The “MRT signal of the prostate carcinoma cells” value in assay [13] (10 days after implantation) is “increased signal intensity”.

“fluorescein isothiocyanate [FITC, reference compound]”: the “uptake into the cells (FITC staining, CLSM)” value in assay [7] and in assay [8] was “not uptaken by the cells” in each case.

In the case of sulforhodamine B, the “uptake by any cell type (rhodamine staining, CLSM)” value in assay [14] is “not taken up by any cell types”.
